Experimental data published in the NIST ThermoML archive (doi:10.1016/j.jct.2007.03.002).
Where “and” joins values, the source holds several entries; their conditions need not be identical. Equal values may be shown once. ± gives the expanded uncertainty stated by the source.

What was measured:
[1] = Crystal; for vapor or sublimation pressure: Calculated from knudsen effusion weight loss; for Normal melting temperature: DTA
[2] = Molar enthalpy of transition or fusion; details: Crystal; DSC
[3] = molar heat capacity at constant pressure; details: 298.15 K; 101.33 kPa; Crystal; Drop calorimetry
[4] = molar enthalpy of vaporization or sublimation; details: 298.15 K; Crystal; Static calorimetry

vapor or sublimation pressure ([1]; 316 K) | Normal melting temperature [1] | Molar enthalpy of transition or fusion [2] | molar heat capacity at constant pressure [3] | molar enthalpy [4] | mass density ([1]; 298.15 K, 101.33 kPa, mass and size of pellet) | Structure (SMILES) | vapor or sublimation pressure ([1]; 313 K) | vapor or sublimation pressure ([1]; 319 K) | vapor or sublimation pressure ([1]; 322 K)
0.0001736 ± 5.2e-05 kPa | 49.2 ± 0.7 °C | 19.7 ± 0.5 kJ/mol | 268.98 ± 22 J/K/mol | 107 ± 1.3 kJ/mol | – | OCc1ccccc1-c1ccccc1 [2-biphenylmethanol] | 0.0001171 ± 3.5e-05 kPa and 0.0001179 ± 3.6e-05 kPa | 0.0002555 ± 7.7e-05 kPa and 0.0002537 ± 7.7e-05 kPa | 0.0003732 ± 0.00011 kPa and 0.0003682 ± 0.00011 kPa
– | 100.6 ± 0.7 °C | 27 ± 0.6 kJ/mol | 256.08 ± 66 J/K/mol | 107 ± 3.6 kJ/mol | 1390 ± 360 kg/m3 | OCc1ccc(-c2ccccc2)cc1 [4-biphenylmethanol] | – | – | –
